Biological target: Sterol 24-C-methyltransferase (Leishmania major)
Assay: In vitro inhibitory concentration against Leishmania major Sterol 24-C-methyltransferase (24-SMT)

CCC(=O)N1CCCCC1C(C)(O)[C@H]1CCC2C3CCC4C[C@@H](O)CC[C@]4(C)C3CC[C@@]21C (stereo partly drawn) [1-{2-[1-Hydroxy-1-((3S,10S,13S,17S)-3-hydroxy-10,13-dimethyl-hexadecahydro-cyclopenta[a]phenanthren-17-yl)-ethyl]-piperidin-1-yl}-propan-1-one]
IC50: 12.9 µM

CC(O)(C1CCCCN1)[C@H]1CC[C@H]2[C@@H]3CCC4C[C@@H](O[Si](C)(C)C(C)(C)C)CC[C@]4(C)[C@H]3CC[C@]12C (stereo not given in full)
IC50: 12.2 µM

CC(O)(C1CCCNC1)[C@H]1CCC2C3CCC4C[C@@H](O[Si](C)(C)C(C)(C)C)CC[C@]4(C)C3CC[C@@]21C (stereo partly drawn) [1-[(3S,10S,13S,17S)-3-(tert-Butyl-dimethyl-silanyloxy)-10,13-dimethyl-hexadecahydro-cyclopenta[a]phenanthren-17-yl]-1-piperidin-3-yl-ethanol]
IC50: 8 µM

CC(O)(c1cccnc1)[C@H]1CCC2C3CCC4C[C@@H](O)CC[C@]4(C)C3CC[C@@]21C (stereo partly drawn) [(3S,10S,13S,17S)-17-(1-Hydroxy-1-pyridin-3-yl-ethyl)-10,13-dimethyl-hexadecahydro-cyclopenta[a]phenanthren-3-ol]
IC50: 38.5 µM

CC(O)(C1CCCNC1)[C@H]1CCC2C3CCC4C[C@@H](O)CC[C@]4(C)C3CC[C@@]21C (stereo partly drawn) [(3S,10S,13S,17S)-17-(1-Hydroxy-1-piperidin-3-yl-ethyl)-10,13-dimethyl-hexadecahydro-cyclopenta[a]phenanthren-3-ol]
IC50: 0.1 µM
